Measured values taken from patent publication US20230158124A1, “DRUG, FOOD AND APPLICATION OF ANTI-CORONAVIRUS INFECTION” (priority 2020, published 2023).

What was measured:
novel coronavirus = test: In vitro inhibition of cytopathic effect caused by novel coronavirus in Vero E6 cells (CCK8); format: cell-based, COVID-19 novel coronavirus; conditions: for inhibition of cytopathic effect caused by the novel coronavirus (in words): Vero E6, summary of Table 1
TNF-α mRNA = format: cell-based, African green monkey; conditions: 350 μg/mL; virus control 3.61 ± 0.29, blank 1.01 ± 0.06
IL-6 mRNA = format: cell-based, African green monkey; conditions: 350 μg/mL; virus control 7.68 ± 0.50, blank 1.08 ± 0.07
Claudin-1 mRNA = test: Expression of intestinal tissue tight junction protein in LPS mice, jejunum, quantitative PCR (Claudin-1); format: in vivo; conditions: 100 mg/kg, model 0.73 ± 0.13, blank 1.07 ± 0.11
Experimental: (§1) Grouping and administration of animals: the animals were randomly divided into a blank group, a model group, a lysozyme group (100 mg/kg), a lysozyme+monoammonium glycyrrhizinate group A (100 mg/kg+2 mg/kg), a lysozyme+monoammonium glycyrrhizinate group B (100 mg/kg+10 mg/kg), a lysozyme+monoammonium glycyrrhizinate group C (100 mg/kg+20 mg/kg), and a lysozyme+dipotassium glycyrrhizinate group (100 mg/kg+2 mg/kg), with eight animals in each group. Each drug group was administrated by oral gavage according to the dosage every day, while the blank group and the model group were administrated with normal saline. The administration was continuously performed for 30 days.
(§2) Modeling: after the administration, the animals of each group except the blank group were intraperitoneally injected with 15 mg/kg lipopolysaccharide, and the blank group was injected with the normal saline. The animals were fasted for 12 hours after injection.
(§3) Determination of the expression of intestinal tissue tight junction protein: after the animals were killed, the jejunum tissue sample was taken to extract RNA, and relative expression levels of […] in the tissue were detected by quantitative PCR.

Occludin mRNA = test: Expression of intestinal tissue tight junction protein in LPS mice, jejunum, quantitative PCR (occludin); format: in vivo; conditions: 100 mg/kg, model 0.54 ± 0.09, blank 1.04 ± 0.12
Experimental: as §1, §2, §3

[1] = tested on: guinea pig inhaling smoke; test: Airway resistance and lung function of guinea pig inhaling smoke; format: in vivo; conditions: once daily 4 weeks
Experimental: A smoked model is a classic animal modeling method of chronic obstructive pulmonary disease. After inhaling smoke for a long time, the animal may suffer from increase of mucus secretion, airway obstruction, and decrease of lung function. The effect of lysozyme on the airway obstruction was evaluated by the modeling method.
Male Hartley guinea pigs with weights ranging from 400 g to 500 g were randomly divided into a blank group, a model group, a lysozyme oral administration group (200 mg/kg), a lysozyme inhalation group (2 mg/kg), a lysozyme+monoammonium glycyrrhizinate inhalation group (2 mg/kg+0.1 mg/kg), a lysozyme+monopotassium glycyrrhizinate oral administration group I (200 mg/kg+20 mg/kg), and a lysozyme+monopotassium glycyrrhizinate oral administration group II (200 mg/kg+40 mg/kg), with eight animals in each group.
The animals in each group except the blank group were exposed to cigarette smoke by using a smoke exposure system inhaled only through nose and mouth, so that the animals inhaled smoke of five cigarettes within 40 minutes every day, for 5 days every week, and for 12 consecutive weeks.
Lysozyme and monoammonium glycyrrhizinate used for inhalation administration were respectively crushed into powder with a particle size less than […]. Then lysozyme and monopotassium glycyrrhizinate used for oral administration were respectively dissolved in normal saline.
The animals in each group except the blank group and the model group were administrated once every day for 4 consecutive weeks from the 8t^h week after modeling. The inhalation groups were administrated by a mouth and nose inhalation exposure system, while the oral administration groups were administrated by oral gavage. The blank group and the model group were administrated by oral gavage with normal saline every day.
Airway resistance measurement and the measurement of force expiratory volume in 100ms(millisecond) were performed after administration.
The animals were placed in a double chamber plethysmography system, and a specific airway resistance (sRaw) was measured after the animals were quiet for 10 minutes. The animals were anesthetized by intramuscular injection of ketamine, then a catheter was inserted into the trachea, and the force expiratory volume in 100ms […] was measured by a lung function detection system.

[2] = tested on: intestinal barrier dysfunction of mice induced by lipopolysaccharide; test: Intestinal permeability (serum FITC-glucan) in mice with intestinal barrier dysfunction induced by lipopolysaccharide; format: in vivo; conditions: 100 mg/kg oral gavage 30 days; model 35.06 ± 5.75, blank 9.40 ± 1.45
Experimental: Lipopolysaccharide could cause intestinal dysfunction of animals. The protective effects of the lysozyme and the combination containing lysozyme on the intestinal barrier dysfunction of mice induced by the lipopolysaccharide were researched in the test.
Test animals: male C57BL/6 mice with a cleaning degree, and with a weight ranging from 20 g to 25 g.
as §1, with “days. […]” for “days.”
Measurement of intestinal permeability: animals of each group were administrated by oral gavage with 600 mg/kg FITC-glucan (dissolved in a phosphate buffer), and blood was taken from an eyeball after 4 hours. The content of the FITC-glucan in serum was measured by fluorescence spectrometry (with an excitation wavelength of 480 nm and an emission wavelength of 520 nm).

[3] = 1,000 μg/mL, Vero E6, 100TCID50, 4 days
[4] = 2,000 μg/mL, Vero E6, 100TCID50, 4 days

| Compound | Inhibition rate (%) on cytopathic effect (novel coronavirus; [3]) | Inhibition rate (%) on cytopathic effect (novel coronavirus; [4]) | inhibition of cytopathic effect caused by the novel coronavirus (in words) (novel coronavirus) | TNF-α mRNA Relative expression quantity (TNF-α mRNA) | IL-6 mRNA Relative expression quantity (IL-6 mRNA) | Claudin-1 mRNA Relative expression quantity (Claudin-1 mRNA) | Occludin mRNA Relative expression quantity (Occludin mRNA) | Airway resistance ([1]; inhalation, 2 mg/kg) | Force expiratory volume in 100 ms ([1]; inhalation, 2 mg/kg) | Force expiratory volume in 100 ms ([1]; oral administration, 200 mg/kg, model 4.18 ± 1.26, blank 11.86 ± 1.24) | Airway resistance ([1]; oral administration, 200 mg/kg, model 4.72 ± 0.38, blank 1.43 ± 0.24) | Inhibition rate (%) on cytopathic effect (novel coronavirus; 350 μg/mL, Vero E6) | Inhibition rate (%) on cytopathic effect (novel coronavirus; 500 μg/mL, Vero E6, 100TCID50, 4 days) | Content of FITC-glucan (serum) [2] |
| --- | --- | --- | --- | --- | --- | --- | --- | --- | --- | --- | --- | --- | --- | --- |
| CC1(C)[C@@H](O[C@H]2O[C@H](C(=O)O)[C@@H](O)[C@H](O)[C@H]2O[C@@H]2O[C@H](C(=O)O)[C@@H](O)[C@H](O)[C@H]2O)CC[C@]2(C)[C@H]3C(=O)C=C4[C@@H]5C[C@@](C)(C(=O)O)CC[C@]5(C)CC[C@@]4(C)[C@]3(C)CC[C@@H]12.N [Monoammonium glycyrrhizinate, monoammonium glycyrrhizinate, reference compound] | 23.35 ± 5.43% | 29.42 ± 7.16% | weak inhibition effect | – | – | – | – | – | – | – | – | – | – | – |
| Lysozyme | 46.67 ± 15.28% | 78.33 ± 2.89% | significantly inhibit | 3.12 ± 0.26 | 6.78 ± 0.30 | 0.79 ± 0.16 | 0.69 ± 0.07 | 3.10 ± 0.14 cmH2O · s | 7.68 ± 1.36 mL | 5.79 ± 2.03 mL | 3.79 ± 0.30 cmH2O · s | 6.67 ± 1.56% | 15.00 ± 8.66% | 27.53 ± 3.21 µg/mL |
